In PubChem BioAssay AID248 (DTP/NCI, 2004):
Values joined by “and” are separate entries in the source; they are usually repeats but may differ in a detail not shown here. Equal values may be shown once. Toxic doses and inconclusive results are not listed. Rule as the data show it: active = T/C of 150% or more; inactive = T/C below 125%.

System: L1210 leukemia ip in BDF1 mice, survival T/C
Experiment: NCI In Vivo Anticancer Drug Screen. Data for tumor model L1210 Leukemia (intraperitoneal) in B6D2F1 (BDF1) mice
Conditions: endpoint: mean survival time, higher = longer survival
Outline: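 Antitumor effect is assessed in tumor-bearing animals. Survival in the compound arm is compared with a vehicle-dosed control arm and expressed as their quotient.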

[1] = dose: 100.0 mg/kg/injection, schedule: Q04DX003 (ip), vehicle: saline with Tween-80
[2] = dose: 400.0 mg/kg/injection, schedule: Q04DX003 (ip), vehicle: saline with Tween-80
[3] = dose: 100.0 mg/kg/injection, schedule: Q01DX001 (ip), vehicle: saline
[4] = dose: 200.0 mg/kg/injection, schedule: Q01DX001 (ip), vehicle: saline
[5] = dose: 400.0 mg/kg/injection, schedule: Q01DX001 (ip), vehicle: saline
[6] = dose: 100.0 mg/kg/injection, schedule: Q01DX009 (ip), vehicle: other
[7] = dose: 100.0 mg/kg/injection, schedule: Q01DX009 (ip), vehicle: saline with Tween-80
[8] = dose: 200.0 mg/kg/injection, schedule: Q01DX009 (ip), vehicle: saline with Tween-80

Measured: T/C

CN=C(NC)Nc1ccc(NC(=O)c2ccc(C(=O)Nc3ccc(NC(=NC)NC)cc3)cc2)cc1
active: dose: 3.25 mg/kg/injection, schedule: Q01DX Z (ip), vehicle: carboxymethylcellulose (CMC) 238 % of control | dose: 6.5 mg/kg/injection, schedule: Q01DX Z (ip), vehicle: carboxymethylcellulose (CMC) 173 % of control and 200 % of control | dose: 39.0 mg/kg/injection, schedule: Q01DX001 (ip), vehicle: other 155 % of control | dose: 40.0 mg/kg/injection, schedule: Q01DX001 (ip), vehicle: carboxymethylcellulose (CMC) 152 % of control | dose: 40.0 mg/kg/injection, schedule: Q01DX001 (ip), vehicle: other 153 % of control | dose: 60.0 mg/kg/injection, schedule: Q01DX001 (ip), vehicle: carboxymethylcellulose (CMC) 214 % of control | dose: 60.0 mg/kg/injection, schedule: Q01DX001 (ip), vehicle: other 192 % of control | dose: 90.0 mg/kg/injection, schedule: Q01DX001 (ip), vehicle: carboxymethylcellulose (CMC) 234 % of control | dose: 90.0 mg/kg/injection, schedule: Q01DX001 (ip), vehicle: other 236 % of control
inactive: dose: 0.8 mg/kg/injection, schedule: Q01DX Z (ip), vehicle: carboxymethylcellulose (CMC) 97 % of control | dose: 1.62 mg/kg/injection, schedule: Q01DX Z (ip), vehicle: carboxymethylcellulose (CMC) 123 % of control | dose: 1.76 mg/kg/injection, schedule: Q01DX Z (oral), vehicle: carboxymethylcellulose (CMC) 115 % of control | dose: 2.68 mg/kg/injection, schedule: Q01DX Z (oral), vehicle: carboxymethylcellulose (CMC) 109 % of control | dose: 4.0 mg/kg/injection, schedule: Q01DX Z (oral), vehicle: carboxymethylcellulose (CMC) 117 % of control | dose: 6.0 mg/kg/injection, schedule: Q01DX Z (oral), vehicle: carboxymethylcellulose (CMC) 108 % of control | dose: 8.0 mg/kg/injection, schedule: Q01DX001 (ip), vehicle: carboxymethylcellulose (CMC) 113 % of control | dose: 8.0 mg/kg/injection, schedule: Q01DX001 (ip), vehicle: other 107 % of control | dose: 11.0 mg/kg/injection, schedule: Q01DX001 (ip), vehicle: carboxymethylcellulose (CMC) 122 % of control | dose: 11.0 mg/kg/injection, schedule: Q01DX001 (ip), vehicle: other 110 % of control | dose: 25.0 mg/kg/injection, schedule: Q01DX Z (oral), vehicle: carboxymethylcellulose (CMC) 103 % of control | dose: 26.0 mg/kg/injection, schedule: Q01DX Z (ip), vehicle: carboxymethylcellulose (CMC) 104 % of control | dose: 50.0 mg/kg/injection, schedule: Q01DX Z (oral), vehicle: carboxymethylcellulose (CMC) 105 % of control | dose: 53.0 mg/kg/injection, schedule: Q01DX Z (ip), vehicle: carboxymethylcellulose (CMC) 87 % of control | dose: 100.0 mg/kg/injection, schedule: Q01DX Z (oral), vehicle: carboxymethylcellulose (CMC) 103 % of control | dose: 200.0 mg/kg/injection, schedule: Q01DX Z (oral), vehicle: carboxymethylcellulose (CMC) 102 % of control

CC(C)C1=CC2=CCC3C(C)(C#N)CCCC3(C)C2CC1CC#N (stereo unspecified)
inactive: [1] 88 % of control | [2] 92 % of control

O=C(CF)CCl
inactive: dose: 0.87 mg/kg/injection, schedule: Q01DX009 (ip), vehicle: Klucel (hydroxypropylcellulose) (HPC) 102 % of control | dose: 1.75 mg/kg/injection, schedule: Q01DX009 (ip), vehicle: Klucel (hydroxypropylcellulose) (HPC) 105 % of control | dose: 3.5 mg/kg/injection, schedule: Q01DX009 (ip), vehicle: Klucel (hydroxypropylcellulose) (HPC) 110 % of control | dose: 14.0 mg/kg/injection, schedule: Q04DX003 (ip), vehicle: saline 96 % of control | dose: 28.0 mg/kg/injection, schedule: Q04DX003 (ip), vehicle: saline 112 % of control

CCOC(=O)CC(C)C(Br)(C(=O)OCC)C(=O)OCC (stereo unspecified)
inactive: dose: 25.0 mg/kg/injection, schedule: Q01DX009 (ip), vehicle: water 109 % of control | dose: 50.0 mg/kg/injection, schedule: Q01DX009 (ip), vehicle: water 111 % of control | dose: 100.0 mg/kg/injection, schedule: Q01DX009 (ip), vehicle: water 100 % of control | dose: 200.0 mg/kg/injection, schedule: Q01DX009 (ip), vehicle: water 96 % of control

CCCCCCCCCN=C(N)CSSCC(N)=NCCCCCCCCC
inactive: dose: 1.0 mg/kg/injection, schedule: Q01DX009 (ip), vehicle: Klucel (hydroxypropylcellulose) (HPC) 109 % of control | dose: 1.0 mg/kg/injection, schedule: Q04DX002 (ip), vehicle: Klucel (hydroxypropylcellulose) (HPC) 101 % of control | dose: 2.0 mg/kg/injection, schedule: Q01DX009 (ip), vehicle: Klucel (hydroxypropylcellulose) (HPC) 111 % of control | dose: 2.0 mg/kg/injection, schedule: Q04DX002 (ip), vehicle: Klucel (hydroxypropylcellulose) (HPC) 116 % of control | dose: 4.0 mg/kg/injection, schedule: Q01DX009 (ip), vehicle: Klucel (hydroxypropylcellulose) (HPC) 109 % of control | dose: 4.0 mg/kg/injection, schedule: Q04DX002 (ip), vehicle: Klucel (hydroxypropylcellulose) (HPC) 116 % of control

O=C(Nc1ccc([N+](=O)[O-])cc1)c1ccc([N+](=O)[O-])cc1
inactive: [1] 94 % of control | dose: 200.0 mg/kg/injection, schedule: Q04DX003 (ip), vehicle: saline with Tween-80 94 % of control | [2] 89 % of control

O=C1c2ccccc2C(=O)c2c1ccc(C1C(=O)c3ccccc3C1=O)c2-c1c(C2C(=O)c3ccccc3C2=O)ccc2c1C(=O)c1ccccc1C2=O
inactive: [3] 95 % of control | [4] 95 % of control | [5] 97 % of control

OCc1ccn2c1[C@@H](O)CC2
active: dose: 50.0 mg/kg/injection, schedule: Q01DX009 (ip), vehicle: saline 153 % of control
inactive: dose: 6.25 mg/kg/injection, schedule: Q01DX009 (ip), vehicle: saline 107 % of control | dose: 12.5 mg/kg/injection, schedule: Q01DX009 (ip), vehicle: acetone 100 % of control | dose: 12.5 mg/kg/injection, schedule: Q01DX009 (ip), vehicle: saline 96 % of control | dose: 25.0 mg/kg/injection, schedule: Q01DX001 (ip), vehicle: saline 101 % of control and 107 % of control | dose: 25.0 mg/kg/injection, schedule: Q01DX009 (ip), vehicle: acetone 111 % of control | dose: 25.0 mg/kg/injection, schedule: Q01DX009 (ip), vehicle: saline 110 % of control | dose: 50.0 mg/kg/injection, schedule: Q01DX001 (ip), vehicle: saline 112 % of control | dose: 100.0 mg/kg/injection, schedule: Q01DX009 (ip), vehicle: saline 121 % of control and 89 % of control | [4] 112 % of control

Nc1ccccc1C(=O)NO
inactive: [3] 98 % of control | [4] 97 % of control | [5] 97 % of control

O=[N+]([O-])c1cccc2ncsc12
inactive: [6] 104 % of control | dose: 200.0 mg/kg/injection, schedule: Q01DX009 (ip), vehicle: other 107 % of control | dose: 400.0 mg/kg/injection, schedule: Q01DX009 (ip), vehicle: other 104 % of control

CC(C)(C)N(O)C(=O)NC1CCCCC1
inactive: dose: 100.0 mg/kg/injection, schedule: Q01DX001 (ip), vehicle: Klucel (hydroxypropylcellulose) (HPC) 92 % of control | dose: 200.0 mg/kg/injection, schedule: Q01DX001 (ip), vehicle: Klucel (hydroxypropylcellulose) (HPC) 91 % of control | dose: 400.0 mg/kg/injection, schedule: Q01DX001 (ip), vehicle: Klucel (hydroxypropylcellulose) (HPC) 103 % of control

CN1CCN(Cc2nc3cccc4c3c([n+]2[O-])-c2ccccc2-4)CC1
inactive: dose: 12.5 mg/kg/injection, schedule: Q01DX009 (ip), vehicle: saline with Tween-80 101 % of control | dose: 25.0 mg/kg/injection, schedule: Q01DX009 (ip), vehicle: saline with Tween-80 105 % of control | dose: 50.0 mg/kg/injection, schedule: Q01DX009 (ip), vehicle: saline with Tween-80 103 % of control | [7] 114 % of control | [8] 123 % of control

CCOC(=O)CNC(=O)Nc1cc(OC)ccc1OC
inactive: [7] 96 % of control | [8] 95 % of control | dose: 400.0 mg/kg/injection, schedule: Q01DX009 (ip), vehicle: saline with Tween-80 100 % of control

CCOC(=O)CN1N=C([P+](c2ccccc2)(c2ccccc2)c2ccccc2)CC1(c1ccccc1)c1ccccc1
inactive: dose: 10.0 mg/kg/injection, schedule: Q01DX001 (ip), vehicle: saline 95 % of control | dose: 20.0 mg/kg/injection, schedule: Q01DX001 (ip), vehicle: saline 96 % of control | dose: 40.0 mg/kg/injection, schedule: Q01DX001 (ip), vehicle: saline 86 % of control

O=C1c2ccccc2C(=O)N1Cc1cccc(Nc2cc(=O)[nH]c(=O)[nH]2)c1
inactive: dose: 200.0 mg/kg/injection, schedule: Q01DX001 (ip), vehicle: saline with Tween-80 95 % of control

O=C(CC(O)(C(F)(F)F)C(F)(F)F)c1ccc(C(=O)CC(O)(C(F)(F)F)C(F)(F)F)cc1
inactive: dose: 50.0 mg/kg/injection, schedule: Q01DX009 (ip), vehicle: other 108 % of control | [6] 97 % of control
